From US8557816B2, “Aurora kinase modulators and method of use” (Amgen Inc., priority 2007, dated 2013)

What was measured:
AuroraA-TPX2 = biological target: T1, AuroraA-TPX2 (Homo sapiens, UniProt O14965); assay: AuroraA-TPX2 Homogeneous Time Resolved Fluorescent (HTRF) kinase assay; format: biochemical; conditions: average; read-out: AurA_IC50_IP (uM Avg)
T1 construct: 20 μL of AuroraA-TPX2 KD GST for a final volume of about 41 μL; GST
T1 sequence (O14965 133-383 limits assumed): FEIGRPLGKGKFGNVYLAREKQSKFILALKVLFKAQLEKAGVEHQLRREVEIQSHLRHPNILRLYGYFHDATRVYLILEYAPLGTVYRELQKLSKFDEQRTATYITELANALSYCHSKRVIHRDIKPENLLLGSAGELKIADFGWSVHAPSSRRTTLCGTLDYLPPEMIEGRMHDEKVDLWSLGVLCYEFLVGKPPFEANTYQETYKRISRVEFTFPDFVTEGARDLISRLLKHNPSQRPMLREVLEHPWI
T1 sequence (Q9ULW0 1-43 partner limits assumed): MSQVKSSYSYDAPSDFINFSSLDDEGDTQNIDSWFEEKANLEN
Procedure: AuroraA-TPX2-Homogeneous Time Resolved Fluorescent (HTRF) Kinase Assay:
The Aurora-A HTRF assay begins with Aurora-A in the presence of ATP phosphorylating the biotinylated peptide PLK. The reaction incubates for about 120 min. Detection reagents are added to quench the reaction. These agents stop the reaction by diluting out the enzyme and chelating the metals due to the presence of EDTA. After addition, the assay is incubated overnight to allow the detection reagents to equilibrate.
The AuroraA HTRF assay comprises 1 μL of compound in 100% DMSO, 20 μL of ATP and biotinylated PLK, and 20 μL of AuroraA-TPX2 KD GST for a final volume of about 41 μL. The final concentration of PLK is about 1 μM. […] Buffer conditions are as follows: 60 mM HEPES pH 7.5, 25 mM NaCl, 10 mM MgCl, 2 mM DTT, 0.05% BSA.
(§1) The assay is quenched and stopped with 160 μL of detection reagent. Detection reagents are as follows: Buffer made of 50 mM Tris, pH 7.5, 100 mM NaCl, 3 mM EDTA, 0.05% BSA, 0.1% Tween20. Added to this buffer prior to reading is Steptavidin allophycocyanin (SA-APC) at a final conc in the assay of 0.0005 mg/mL, and europilated anti-phosphoPLK Ab (Eu-anti-PLK) at a final conc of 0.02 nM.
The assay plate is read in either a Discovery or a RubyStar. The eu-anti-PLK is excited at 320 nm and emits at 615 nm to excite the SA-APC which in turn emits at 655 nm.

AuroraB = biological target: T2, AuroraB (Homo sapiens, UniProt Q96GD4); assay: AuroraB Homogeneous Time Resolved Fluorescent (HTRF) kinase assay; format: biochemical; conditions: average; read-out: AurB_IC50_IP (uM Avg)
T2 construct: 20 μL of AuroraB FL H is for a final volume of 41 μL; His
T2 sequence (Q96GD4 whole entry): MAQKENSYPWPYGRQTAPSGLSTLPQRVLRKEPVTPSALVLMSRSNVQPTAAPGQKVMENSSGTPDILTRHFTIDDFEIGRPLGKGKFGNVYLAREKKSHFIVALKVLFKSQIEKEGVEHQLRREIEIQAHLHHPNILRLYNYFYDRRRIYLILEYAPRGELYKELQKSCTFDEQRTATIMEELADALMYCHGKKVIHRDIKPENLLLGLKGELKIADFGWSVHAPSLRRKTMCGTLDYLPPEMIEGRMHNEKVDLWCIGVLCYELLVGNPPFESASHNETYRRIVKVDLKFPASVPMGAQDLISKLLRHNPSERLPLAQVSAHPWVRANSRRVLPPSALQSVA
Procedure: AuroraB-Homogeneous Time Resolved Fluorescent (HTRF) Kinase Assay:
The AuroraB HTRF assay begins with AuroraB in the presence of ATP phosphorylating the biotinylated peptide Histone H3. The reaction incubates for about 90 min. the reaction is quenched by addition of detection reagents, which stop the reaction by diluting out the enzyme and chelating the metals due to the presence of EDTA. After addition, the assay is incubated for about 60 min to allow detection reagents to equilibrate.
The AuroraB HTRF assay comprises 1 μL of compound in 100% DMSO, 20 μL of ATP and biotinylated Histone H3, and 20 μL of AuroraB FL H is for a final volume of 41 μL. The final concentration of Histone H3 is 0.1 μM. […] Buffer conditions are as follows: 50 mM HEPES pH 7.5, 5 mM NaCl, 0.5 mM MgCl, 0.5 mM MnCl, 2 mM DTT, 0.05% BSA.
as §1, with “0.001” for “0.0005”, “anti-phosphoHistoneH3” for “anti-phosphoPLK”, “(Eu-anti-HisH3)” for “(Eu-anti-PLK)”, “0.064” for “0.02”
The assay plate is read in either a Discovery or a RubyStar. The eu-anti-HisH3 is excited at 320 nm and emits at 615 nm to excite the SA-APC which in turn emits at 655 nm.

Row | Structure (SMILES) | IC50 (AuroraA-TPX2) | IC50 (AuroraB)
1 | COc1cnc2c([S+]([O-])c3ccc(Nc4nnc(-c5ccc(F)cc5)c5ccccc45)cc3)ccnc2c1 (centres unmarked) [Example 410, 4-(4-fluorophenyl)-N-(4-(7-methoxy-1,5-naphthyridin-4-ylsulfinyl)phenyl)phthalazin-1-amine] | 0.532 µM | 0.645 µM
2 | CCc1cc(-c2ccccc2)nnc1Nc1ccc(Oc2ccnc3cc(C(N)=O)ccc23)cc1 [compound 49, 4-((4-((4-ethyl-6-phenyl-3-pyridazinyl)amino)phenyl)oxy)-7-quinolinecarboxamide] | 0.021 µM | 0.001 µM
3 | COc1cnc2c(N(C)c3ccc(Nc4nnc(-c5ccccc5)c5ccccc45)cc3)ccnc2c1 [compound 51, N-methyl-N-(7-(methyloxy)-1,5-naphthyridin-4-yl)-N′-(4-phenyl-1-phthalazinyl)-1,4-benzenediamine] | 0.86 µM | 0.023 µM
4 | COc1cc2nccc(Oc3ccc(Nc4nnc(-c5ccc(C)c(C)c5)c5ccccc45)cc3)c2cc1OC [compound 74, N-(4-((6,7-bis(methyloxy)-4-quinolinyl)oxy)phenyl)-4-(3,4-dimethylphenyl)-1-phthalazinamine] | 0.014 µM | 0.032 µM
5 | COc1cc2nccc(Oc3ccc(Nc4nnc(N5CCCCC5)c5ccccc45)cc3)c2cc1OC [compound 75, N-(4-((6,7-bis(methyloxy)-4-quinolinyl)oxy)phenyl)-4-(1-piperidinyl)-1-phthalazinamine] | 0.023 µM | 0.042 µM
6 | COc1cc2nccc(Oc3ccc(Nc4nnc(-c5cccs5)c5ccccc45)cc3F)c2cc1OC [compound 76, N-(4-((6,7-bis(methyloxy)-4-quinolinyl)oxy)-3-fluorophenyl)-4-(2-thienyl)-1-phthalazinamine] | 0.034 µM | 0.106 µM
7 | COc1cc2nccc(Oc3ccc(Nc4nnc(-n5nc(C)cc5C)c5ccccc45)cc3F)c2cc1OC [compound 77, N-(4-((6,7-bis(methyloxy)-4-quinolinyl)oxy)-3-fluorophenyl)-4-(3,5-dimethyl-1H-pyrazol-1-yl)-1-phthalazinamine] | 0.701 µM | 0.079 µM
8 | NC(=O)c1cc2nccc(Oc3ccc(Nc4nnc(-c5ccccc5)c5ccccc45)cc3F)c2s1 [compound 78, 7-((2-fluoro-4-((4-phenyl-1-phthalazinyl)amino)phenyl)oxy)thieno-[3,2-b]pyridine-2-carboxamide] | 0.022 µM | 0.004 µM
9 | COc1cnc2c(Oc3ccc(Nc4nnc(-c5ccccc5)c5ccccc45)cc3)ccnc2c1 [compound 79, N-(4-((7-(methyloxy)-1,5-naphthyridin-4-yl)oxy)phenyl)-4-phenyl-1-phthalazinamine] | 0.028 µM | 0.008 µM
10 | COc1cnc2c(Oc3ccc(Nc4nnc(-c5cc(F)ccc5OC)c5ccccc45)cc3)ccnc2c1 [compound 80, 4-(5-fluoro-2-(methyloxy)phenyl)-N-(4-((7-(methyloxy)-1,5-naphthyridin-4-yl)oxy)phenyl)-1-phthalazinamine] | 0.414 µM | 0.041 µM
11 | COc1cnc2c(Oc3ccc(Nc4nnc(-c5ccc(C)cc5)c5ccccc45)cc3)ccnc2c1 [compound 81, N-(4-((7-(methyloxy)-1,5-naphthyridin-4-yl)oxy)phenyl)-4-(4-methylphenyl)-1-phthalazinamine] | 0.012 µM | 0.006 µM
12 | COc1cnc2c(Oc3ccc(Nc4nnc(-c5nc(C)cs5)c5ccccc45)cc3)ccnc2c1 [compound 82, N-(4-((7-(methyloxy)-1,5-naphthyridin-4-yl)oxy)phenyl)-4-(4-methyl-1,3-thiazol-2-yl)-1-phthalazinamine] | 0.013 µM | 0.006 µM
13 | CCc1cc(-c2ccccc2)nnc1Nc1ccc(Oc2ccnc3cc(OC)cnc23)nc1 [compound 83, 4-ethyl-N-(6-((7-(methyloxy)-1,5-naphthyridin-4-yl)oxy)-3-pyridinyl)-6-phenyl-3-pyridazinamine] | 0.08 µM | 0.01 µM
